Results reported in patent US20130078317A1, “ZINC-CONTAINING COMPOSITIONS FOR THE TREATMENT OF DISEASES, ILLNESSES AND SYNDROMES ASSOCIATED WITH EXPOSURE TO PORE FORMING TOXINS” (priority 2009, published 2013).

Columns and labels:
[1] = biological target: T1, purified hemolysin from Carybdea alata (Alatina alata, UniProt Q9GNN8); test: Potassium efflux induced by purified hemolysin from Carybdea alata in isolated red blood cells; format: cell-based; conditions: 2% RBC; FIG. 4 legend
T1 sequence (Q9GNN8 31-463 limits assumed): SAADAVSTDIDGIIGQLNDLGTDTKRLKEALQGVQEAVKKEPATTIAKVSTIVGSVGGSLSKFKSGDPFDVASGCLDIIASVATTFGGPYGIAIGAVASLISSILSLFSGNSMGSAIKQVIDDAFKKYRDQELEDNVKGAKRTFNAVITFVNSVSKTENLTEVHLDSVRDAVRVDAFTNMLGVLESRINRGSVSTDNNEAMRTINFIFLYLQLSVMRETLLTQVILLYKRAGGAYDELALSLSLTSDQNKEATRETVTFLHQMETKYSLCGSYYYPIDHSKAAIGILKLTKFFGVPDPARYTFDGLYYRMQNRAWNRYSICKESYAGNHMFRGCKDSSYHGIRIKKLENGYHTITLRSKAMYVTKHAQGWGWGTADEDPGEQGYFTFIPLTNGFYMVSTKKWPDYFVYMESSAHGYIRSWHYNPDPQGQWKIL

Carybdea alata hemolysin = biological target: T2, Carybdea alata hemolysin (Alatina alata, UniProt Q9GNN8); test: Hemolysis induced by Carybdea alata hemolysin in 2% RBC; format: cell-based; conditions: 5 mM zinc gluconate
T2 sequence (Q9GNN8 31-463 limits assumed): T1 sequence (Q9GNN8 31-463 limits assumed)

zinc gluconate
potassium efflux induced by purified hemolysin from Carybdea alata [1]: inhibits
hemolysis induced by Carybdea alata hemolysin (Carybdea alata hemolysin): substantially inhibited
